Patent US5344933A, “Pyrrole ring-or condensed pyrrole ring-containing azomethine dye” (Fuji Photo Film Co., Ltd., priority 1991, dated 1994)
One block for each compound: values may come before it.

Key:
Assay type in all cases: physicochemical
[1] = Absorption characteristics of dyes in ethyl acetate; conditions: for absorption maxima wavelength (λmax): Example 1
Text: The σp value of substituents in dyes of the present invention, the absorption maxima wavelength of these dyes in ethyl acetate and their half value widths are tabulated below.
The absorption characteristics of Dyes 1, 2, 8, 12, 23, 101, 102, 104, 105, 106, 128, 129, 130, and 131 of the present invention in ethyl acetate are as shown in FIGS. 1 to 14. In these figures, the abbreviation "ABS" in the ordinate means the absorbance. The absorption maxima wavelength (λmax) in ethyl acetate and other physical properties of the dyes of the present invention are as follows: […]

[2] = Light fastness of dye images, 17,000 lux fluorescent lamp, 7 days
Method: (§1) The heat transfer image-receiving materials on which recording had been made were then irradiated with light from a 17,000 lux fluorescent lamp for 7 days to examine the stability of the dyes. The heat transfer image-receiving materials were also stored at a temperature of 60° C. under dry conditions for 7 days to examine the fastness of the dyes to heat. […] For the evaluation of stability, percentage of the measurements to the initial value (1.0) were determined. The measurement was effected at λmax.
(§2) Heat transfer dye providing materials (3-1), (3-2), and (3-3) were prepared in the same manner as in Example 2 except that the polyvinyl butyral resin and dye to be incorporated in the heat transfer dye providing layer coating composition of Example 2 were replaced by the resins and dyes set forth in Table 3.
(§3) Using the same image-receiving material as prepared in Example 2, printing was made on these heat transfer dye providing materials.
as §2, with “(6-1), (6-2),” for “(3-1), (3-2),”, “(6-3)” for “(3-3)”, “6.” for “3.”

[3] = Heat fastness of dye images, 60° C. dry, 7 days (Example 2); conditions: Table 1, initial density 1.0, at λmax
Method: as §1

[4] = Heat fastness of dye images, 60° C. dry, 7 days, status A reflection density (Example 5); conditions: Table 4, status A reflection density 1.0
Method: The heat transfer image-receiving materials on which recording had been made were stored at a temperature of 60° C. under dry conditions for 7 days to examine the fastness of the dyes to heat. […] For the evaluation of stability, percentage of the measurements to the initial value (1.0) were determined.
as §3

[5] = Table 1, 17,000 lux, 7 days, initial density 1.0, at λmax, polyvinyl butyral

- absorption maxima wavelength (λmax) [1]: 697 nm
Compound: CCOC(=O)c1c(C)n2c(nc1=O)C(C#N)=C(c1ccccc1)C2=Nc1ccc(N(CC)CCNS(C)(=O)=O)cc1C [Dye 1]

- absorption maxima wavelength (λmax) [1]: 685 nm
- Light fastness (% remaining) [2, 5]: 90%
- Light fastness (% remaining) ([2]; Table 3, resin ethyl cellulose): 91%
- Heat fastness (% remaining) [3]: 85%
Compound: CCOC(=O)c1c(C)n2c(nc1=O)C(C#N)=C(c1ccccc1)C2=Nc1ccc(N(CC)CC)cc1 [Dye 2]

- Light fastness (% remaining) [2, 5]: 91%
- Light fastness (% remaining) ([2]; Table 3, resin cellulose acetobutyrate): 92%
- Heat fastness (% remaining) [3]: 85%
Compound: CCOC(=O)c1c(C)n2c(nc1=O)C(C#N)=C(c1ccccc1)C2=Nc1ccc(N(CC)CC)cc1NC(=O)OC [Dye 4]

- absorption maxima wavelength (λmax) [1]: 698 nm
- Light fastness (% remaining) [2, 5]: 94%
- Heat fastness (% remaining) [3]: 98%
Compound: CCOC(=O)c1cn2c(nc1=O)C(C#N)=C(c1ccccc1)C2=Nc1ccc(N(CC)CC)cc1NC(=O)OC [Dye 12]
- absorption / hue (in words) [1]: sufficient and sharp absorption in the vicinity of 700 nm and little or no absorption in the wavelength region of longer than 800 nm

- Light fastness (% remaining) [2, 5]: 93%
- Heat fastness (% remaining) [3]: 98%
Compound: CCOC(=O)c1cn2c(nc1=O)C(C#N)=C(C#N)C2=Nc1ccc(N(CC)CC)cc1NC(=O)N(C)C [Dye 16]

- absorption maxima wavelength (λmax) [1]: 658 nm
Compound: CCCCCCCCCCCCCCCCCCOc1ccc(-c2cc(=O)n3c(n2)C(C#N)=C(c2ccccc2)C3=Nc2ccc(N(CC)CCNS(C)(=O)=O)cc2C)cc1 [Dye 23]

- Light fastness (% remaining) [2, 5]: 90%
- Heat fastness (% remaining) [3]: 86%
Compound: CCOC(=O)C1=C(C#N)C(=Nc2ccc(N(CC)CC)cc2)n2c1nc1ccccc1c2=O [Dye 29]

- Half value width [1]: 65 nm
- absorption / hue (in words) [1]: long absorption maxima wavelength
- half value width (in words) [1]: sufficiently small
- absorption maxima wavelength (λmax) [1]: 660 nm
Compound: CCCCCCCCCCCCC(SC1=NC(=Nc2ccc(N(CC)CCNS(C)(=O)=O)cc2C)C(C#N)=C1C(=O)OCC)C(=O)OCC (stereo not drawn) [Dye 101]

- Half value width [1]: 69 nm
- absorption / hue (in words) [1]: long absorption maxima wavelength
- half value width (in words) [1]: sufficiently small
- absorption maxima wavelength (λmax) [1]: 655 nm
Compound: CCCCCCCCCCCCSC1=NC(=Nc2ccc(N(CC)CCNS(C)(=O)=O)cc2C)C(C#N)=C1C(=O)OCC [Dye 102]

- Half value width [1]: 78 nm
- half value width (in words) [1]: large half value width
- absorption maxima wavelength (λmax) [1]: 601 nm
Compound: CCC(Oc1ccc(C(C)(C)CC)cc1C(C)(C)CC)C(=O)NC1=C(C#N)C(c2ccccc2)=NC1=Nc1ccc(N(CC)CCNS(C)(=O)=O)cc1C (stereo not drawn) [Dye 104]
- absorption / hue (in words) [1]: in a slightly short wavelength range but exhibit a cyan hue

- Half value width [1]: 82 nm
- half value width (in words) [1]: large half value width
- absorption maxima wavelength (λmax) [1]: 582 nm
Compound: CCOC(=O)C1=C(c2ccccc2)C(=Nc2ccc(N(CC)CCNS(C)(=O)=O)cc2C)N=C1Cl [Dye 105]
- absorption / hue (in words) [1]: in a slightly short wavelength range but exhibit a cyan hue

- Half value width [1]: 79 nm
- absorption maxima wavelength (λmax) [1]: 641 nm
Compound: CCN(CCNS(C)(=O)=O)c1ccc(N=C2N=C(N)C(C#N)=C2C#N)c(C)c1 [Dye 106]

- Heat fastness (% remaining) [4]: 91%
Compound: CCN(CC)c1ccc(N=C2N=C(c3ccccc3Cl)C(C(C)(C)C)=C2C#N)c(NC(=O)C(C)(C)C)c1 [Dye 118]

- Half value width [1]: 64 nm
- absorption / hue (in words) [1]: long absorption maxima wavelength
- half value width (in words) [1]: sufficiently small
- absorption maxima wavelength (λmax) [1]: 658 nm
Compound: CCN(CCNS(C)(=O)=O)c1ccc(N=C2N=C(NC(C)=O)C(C#N)=C2C#N)c(C)c1 [Dye 128]

- Half value width [1]: 79 nm
- absorption / hue (in words) [1]: long absorption maxima wavelength
- half value width (in words) [1]: sufficiently small
- absorption maxima wavelength (λmax) [1]: 677 nm
Compound: CCN(CCNS(C)(=O)=O)c1ccc(N=C2N=C(NC(=O)Nc3ccccc3)C(C#N)=C2C#N)c(C)c1 [Dye 129]

- Half value width [1]: 120 nm
- half value width (in words) [1]: large half value width
- absorption maxima wavelength (λmax) [1]: 639 nm
Compound: CCCCCCCCCCCCCCCCS(=O)(=O)Nc1ccc(Cl)c(NC(=O)NC2=NC(=Nc3ccc(N(CC)CCNS(C)(=O)=O)cc3)C(C(N)=O)=C2C(N)=O)c1 [Dye 130]

- Half value width [1]: 98 nm
- half value width (in words) [1]: large half value width
- Absorption maxima ([1]; first table): 629 nm
Compound: CCC(Oc1ccc(C(C)(C)CC)cc1C(C)(C)CC)C(=O)NC1=NC(=Nc2ccc(N(CC)CCNS(C)(=O)=O)cc2C)C(C(N)=O)=C1C(N)=O (stereo not drawn) [Dye 131]

Continued, compound first:

Compound: CCOC(=O)c1c(C)n2c(nc1=O)C(C#N)=C(c1ccccc1)C2=Nc1ccc(N(CC)CCOc2ccc(OC)cc2)cc1 [Dye 3]
- Light fastness (% remaining) [2, 5]: 92%
- Heat fastness (% remaining) [3]: 86%

Compound: CCOC(=O)c1cn2c(nc1=O)C(C#N)=C(c1ccccc1)C2=Nc1ccc(N(CC)CC)cc1 [Dye 8]
- absorption maxima wavelength (λmax) [1]: 694 nm
- Light fastness (% remaining) [2, 5]: 91%
- Light fastness (% remaining) ([2]; Table 3, resin polysulfone): 91%
- Heat fastness (% remaining) [3]: 99%

Compound: CCOC(=O)c1cn2c(nc1=O)C(C#N)=C(c1ccccc1)C2=Nc1ccc(N(CC)CCOc2ccc(OC)cc2)cc1 [Dye 10]
- Light fastness (% remaining) [2, 5]: 93%
- Heat fastness (% remaining) [3]: 100%

Compound: CCN(CC)c1ccc(N=C2C(C#N)=C(c3ccccc3)c3nc(=O)ccn32)c(NC(C)=O)c1 [Dye 17]
- Light fastness (% remaining) [2, 5]: 91%
- Heat fastness (% remaining) [3]: 95%

Compound: CCN(CC)c1ccc(N=C2C(c3ccccc3)=C(C#N)c3nc(=O)c4ccccc4n32)c(NC(C)=O)c1 [Dye 22]
- Light fastness (% remaining) [2, 5]: 91%
- Heat fastness (% remaining) [3]: 85%

Compound: CCN(CC)c1ccc(N=C2N=C(NC(=O)C(C)(C)C)C(C#N)=C2C#N)cc1 [Dye 113]
- Light fastness (% remaining) ([2]; Table 6, resin ethyl cellulose): 91%
- Heat fastness (% remaining) [4]: 90%

Compound: CCN(CC)c1ccc(N=C2N=C(c3ccccc3)C(C#N)=C2c2ccccc2)c(C)c1 [Dye 114]
- Light fastness (% remaining) ([2]; Table 6, resin cellulose acetobutyrate): 93%
- Heat fastness (% remaining) [4]: 91%

Compound: CCN(CCOc1ccc(OC)cc1)c1ccc(N=C2N=C(c3ccccc3)C(C#N)=C2NC(=O)C(C)(C)C)cc1 [Dye 115]
- Light fastness (% remaining) ([2]; Table 6, resin polysulfone): 92%
- Heat fastness (% remaining) [4]: 90%

Compound: CCN(CC)c1ccc(N=C2N=C(c3ccccc3NC(=O)C(C)(C)C)C(C#N)=C2c2ccccc2)cc1 [Dye 116]
- Heat fastness (% remaining) [4]: 89%

Compound: CCN(CC)c1ccc(N=C2N=C(c3ccccc3)C(C#N)=C2C(C)(C)C)c(NC(=O)N2CCOCC2)c1 [Dye 117]
- Heat fastness (% remaining) [4]: 94%

Compound: CCN(CCC#N)c1ccc(N=C2N=C(NC(=O)C(C)(C)C)C(C#N)=C2C#N)cc1 [Dye 119]
- Heat fastness (% remaining) [4]: 90%

Compound: CCN(CCOc1ccc(C(=O)c2ccccc2)c(O)c1)c1ccc(N=C2N=C(c3ccccc3)C(C#N)=C2c2cccs2)cc1 [Dye 120]
- Heat fastness (% remaining) [4]: 98%

Compound: CCC1=C(Cl)C(=O)C(NC(=O)c2ccco2)=CC1=Nc1ccc(N(CC)CC)cc1 [Dye a, reference compound]
- Light fastness (% remaining) [2, 5]: 87%
- Heat fastness (% remaining) [3]: 88%

Compound: CCN(CC)c1ccc(N=C2C=C(NC(=O)c3ccco3)C(=O)C(Cl)=C2C)cc1 [Dye b, reference compound]
- Heat fastness (% remaining) [4]: 83%
